In article PMC9858543, “Design, synthesis and evaluation of 2, 6, 8-substituted Imidazopyridine derivatives as potent PI3Kα inhibitors” (Journal of Enzyme Inhibition and Medicinal Chemistry, 2023):

Assays:
[1] = Liver microsomal stability assay, HLM; assay type: in vitro ADME, human
Procedure: (§1) The metabolic stability of compound 35 was determined in human or SD rat liver microsomes, with and without the NADPH regenerating system. Briefly, compound 35 was incubated with microsomes (human microsome, CORNING, lot No. 38296; rat microsome, Xenotech, Lot No. 2110178) (0.5 mg protein/mL) at 1 μM at 37 °C in potassium phosphate buffer (100 mM at pH 7.4 with 10 mM MgCl2). The reactions were initiated by adding prewarmed cofactors (1 mmol NADPH). After incubation for different times (0, 5, 10, 20, 30, and 60 min) at 37 °C, cold acetonitrile containing 200 ng/mL tolbutamide and 200 ng/mL labetalol as internal standards was added to precipitate the protein. Then, the samples were centrifuged, and the supernatants were transferred into HPLC water, mixed by plate shaker for 10 min prior to LC − MS/MS analysis.

[2] = Liver microsomal stability assay, RLM; assay type: in vitro ADME, rat
Procedure: as §1

[3] = tested on: NCI-H1975; assay: Cell proliferation assay (CellTiter-Glo), NCI-H1975; assay type: cell-based; conditions: Homo sapiens, 72 h exposure, mean ± SD of two experiments
Procedure: (§2) Given the desirable enzyme activity profile, these compounds were further assayed for their antiproliferative activities against five independent human tumour cell line collections harbouring PIK3CA mutation, including human ovarian cancer cell line SKOV-3, human breast cancer T47D and MCF-7, human lung cancer H1975 and H460. […] In general, the cellular activity of tested derivatives corrected with their effects on kinase activity.
(§3) All target compounds were evaluated for antiproliferative potency against SKOV-3, T47D,NCI-H1975, NCI-H460,and MCF-7 tumour cell lines using a CellTiter-Glo® Luminescent Cell Viability Assay. The human tumour cell lines used were obtained from the ATCC or Shanghai ZhongQiaoXinZhou Biotech. All the mediums and FBS were Gibco. T47D, H1975 and NCI-H460 tumour cells were cultured in RPMI1640 medium supplemented with 10% FBS. SKOV-3 was cultured in McCoy’s 5 A medium supplemented with 10%FBS. The day before treatment with compounds, cells were seeded at a density of 2000 or 5000 in each well of a 96-well plate. The tumour cells were then treated with 3-fold serial diluted compound or DMSO control in the incubator at 37 °C and 5% CO2 for 3 days, prior to the addition of CellTiter-Glo reagents (Promega) and reading of luminescence using a PerkinElmer Envision plate reader. Data were analysed using GraphPad Prism 7.0.

[4] = tested on: T47D cells; assay: Apoptosis analysis, annexin V/7-AAD flow cytometry; assay type: cell-based, human; conditions: 50 μM, 24 h
Procedure: (§4) Considering compound 35 was most sensitive in T47D cells, we decided to get some mechanistic insight into the mode of action in T47D cell line. As such, the annexin V/7-AAD staining and cell cycle phase distribution have been carried out. […] Furthermore, T47D cells were also treated with different concentrations of 35, and the percentage of apoptotic cells was measured.
(§5) For cell cycle analysis, T47D cell (1 × 10^6) were seeded in 6-well plates overnight and treated with different concentrations of compound 35 and DMSO control on the next day. After 24 h, the cells were collected by EDTA-free trypsinization, centrifuged at 1500 rpm for 5 min, and fixed in 75% ethanol at −20 °C for 1 h. The cells were then centrifuged at 2000 rpm for 5 min, resuspended in 500 µL PI/Rnase Staining Buffer, incubated for 30 min at room temperature, and analysed using flow cytometry. The data were analysed using Modfit software. For cell apoptosis analysis, T47D cell were seeded in 6 well-plates and treated with DMSO or compound 35 for 24 h. The treated cells were collected and washed with cold PBS for three times, resuspended in 185 µL binding buffer containing 5 μL Annexin V-FITC Apoptosis Detection Kit and 10 μL 7-AAD Viability Staining Solution for 15 min at room temperature in the dark. Apoptotic cells were analysed by flow cytometer.

[5] = tested on: T47D; assay: Cell proliferation assay (CellTiter-Glo), T47D; assay type: cell-based; conditions: Homo sapiens, 72 h exposure, mean ± SD of two experiments
Procedure: as §2, §3

[6] = tested on: SKOV-3; assay: Cell proliferation assay (CellTiter-Glo), SKOV-3; assay type: cell-based; conditions: Homo sapiens, SK-OV-3; 72 h exposure; mean ± SD of two experiments
Procedure: as §2, §3

[7] = tested on: T47D cells; assay: Cell cycle analysis, PI flow cytometry; assay type: cell-based, human; conditions: 24 h
Procedure: as §4, §5

In the case of `COc1ncc(-c2cc(C)cn3cc(C(=O)N4CCCC4)nc23)cc1NS(=O)(=O)c1ccc(F)cc1` [Compound 35, 4-Fluoro-N-(2-methoxy-5–(6-methyl-2-(pyrrolidine-1-carbonyl)Imidazo[1,2-a]pyridin-8-yl)pyridin-3-yl)benzenesulfonamide], the “Remaining (T = 60min)” value ([1]; 1 μM, 60 min) is reported as 42.7%, the microsomal CLint at 1 μM ([1]; human, human liver microsomes, pH 7.4, 0.5 mg protein/mL, read-out: Metabolic stability CL int) is reported as 30.7 µL/min/mg and the half-life at 1 μM ([1]; human, human liver microsomes, pH 7.4, 0.5 mg protein/mL, read-out: Metabolic stability T1/2) is reported as 45.1 min. For the same compound, the “Remaining (T = 60min)” value ([2]; 1 μM, 60 min) was 31.5%, the microsomal CLint at 1 μM ([2]; SD, rat, rat liver microsomes, pH 7.4, 0.5 mg protein/mL, read-out: Metabolic stability CL int) was 43.4 µL/min/mg and the half-life at 1 μM ([2]; SD, rat, rat liver microsomes, pH 7.4, 0.5 mg protein/mL, read-out: Metabolic stability T1/2) was 31.9 min. The IC50 [3] was 32.1 ± 2.4 µM, the “Q2 cells (late apoptosis), annexin V/7-AAD” value [4] was 21.8% and the “Q3 cells (early apoptosis), annexin V/7-AAD” value [4] was 1.51%. The IC50 [5] was 7.9 ± 0.8 µM, the IC50 [6] was 26.6 ± 1.3 µM and the cell cycle effect [7] was “S cell cycle arrest”.
